Experimental findings from ChEMBL document CHEMBL3301361, “Experimental in vitro DMPK and physicochemical data on a set of publicly disclosed compounds” are described below.

Data set [1] can be described thus: in vitro. Conditions: human.
Data set [2] can be described thus: in vitro. The note with it: hepatocytes.
A short description of data set [3]: in vitro. The note with it: human, plasma.
Data set [4] is described as follows: physchem. The note with it: octan-1-ol/water, pH 7.4, LogD7.4.
The nature of data set [5]: physchem. Conditions: pH 7.4 buffer.

By microsomal CLint is commonly meant the capacity of the preparation to metabolise the compound, expressed as a volume cleared per time. As a reminder, the hepatocyte CLint is a measure of how fast metabolising enzymes remove a compound, apart from limits set by blood flow. For orientation: fraction unbound means the share of the substance not bound to proteins or other matrix. For orientation: logD means lipophilicity at a set pH, counting ionised and neutral species. The solubility (thermodynamic) is solubility found after equilibrating the solid with the medium.

SMILES strings stand for the structures. Converted amounts (≈) assume the structure as drawn. A value given as a limit tells only on which side of the number the result lay.

In turn, `O=C(Nc1nc2ccccc2n1CCCO)c1cccc([N+](=O)[O-])c1` yielded a microsomal CLint in the data set “in vitro [1]” (microsomes) of 112 µL/min/mg. Moreover, the hepatocyte CLint in the data set “in vitro [2]” turned out to be 85.1 µL/min/1e6 cells. In the data set “in vitro [3]” (PPB), the fraction unbound at 5 h is 0.0801. In “physchem [4]”, this molecule returned a logD of 3.

In the case of `COc1ccc(N(C(=O)Oc2c(C)cccc2C)c2ccnc(Nc3ccc(N4CCN(C)CC4)cc3)n2)c(OC)c1`, in “in vitro [1]” (microsomes), the microsomal CLint worked out at 27.5 µL/min/mg. Besides, in the data set “in vitro [2]”, the hepatocyte CLint worked out at 35.5 µL/min/1e6 cells. Besides, the fraction unbound at 5 h in the data set “in vitro [3]” is 0.0017.

Molecule `CCc1nc2ccc(C(=O)NCc3ccc4c(c3)OCO4)cn2c1N(C)Cc1cccs1` yielded a microsomal CLint in the data set “in vitro [1]” (liver microsomes) of more than 150 µL/min/mg. The molecule also gave a hepatocyte CLint in “in vitro [2]” of more than 150 µL/min/1e6 cells. Further, the fraction unbound at 5 h in the data set “in vitro [3]” (PPB) was 0.0035.

Molecule `CCNC(=O)C[C@H]1N=C(c2ccc(Cl)cc2)c2cc(OC)ccc2-n2c(C)nnc21` gave a microsomal CLint in the data set “in vitro [1]” (microsomes) of 11.5 µL/min/mg. Besides, in “in vitro [2]”, the hepatocyte CLint is 6.31 µL/min/1e6 cells. In the data set “in vitro [3]”, the fraction unbound at 5 h is 0.069.

`O=C(O)Cc1ccc(N2CCC(CN3CCC(Oc4ccc(Cl)c(Cl)c4)CC3)CC2)cc1`: the microsomal CLint in the data set “in vitro [1]” (microsomes) was less than 3 µL/min/mg. In the data set “in vitro [2]”, the hepatocyte CLint is 9 µL/min/1e6 cells. Further, in the data set “in vitro [3]” (PPB), the fraction unbound at 5 h is 0.02.

Take `CC(C)N(CCCNC(=O)Nc1ccc(C(C)(C)C)cc1)C[C@H]1O[C@@H](n2ccc3c(N)ncnc32)[C@H](O)[C@@H]1O`: the microsomal CLint in the data set “in vitro [1]” (liver microsomes) was more than 150 µL/min/mg. The hepatocyte CLint in “in vitro [2]” came out at 33.9 µL/min/1e6 cells. Also, in “in vitro [3]” (PPB), the free fraction (fraction unbound) at 5 h is 0.201. In addition, the logD in “physchem [4]” was determined as 2.4.

Molecule `CC(C)c1ccc(NC(=O)NCCCSC[C@H]2O[C@@H](n3cnc4c(N)ncnc43)[C@H](O)[C@@H]2O)cc1` came in with a microsomal CLint in “in vitro [1]” (liver microsomes) of 126 µL/min/mg. The hepatocyte CLint in the data set “in vitro [2]” amounted to 110 µL/min/1e6 cells. Further, the free fraction (fraction unbound) at 5 h in the data set “in vitro [3]” (PPB) was 0.0784. The logD in “physchem [4]” is 2.5.

In the case of `Nc1ncnc2c1ncn2[C@@H]1O[C@H](CSCCCNC(=O)Nc2ccc(Cl)cc2)[C@@H](O)[C@H]1O`, the microsomal CLint in “in vitro [1]” (liver microsomes) worked out at 21.4 µL/min/mg. The same molecule yielded a hepatocyte CLint in “in vitro [2]” of 93.3 µL/min/1e6 cells. This molecule also gave a fraction unbound at 5 h in the data set “in vitro [3]” (PPB) of 0.0836. The molecule also displayed a logD in the data set “physchem [4]” of 2.5.

As to `CC(C)N(CCCNC(=O)Nc1ccc(C(C)(C)C)cc1)C[C@H]1O[C@@H](n2cnc3c(N)ncnc32)[C@H](O)[C@@H]1O`, the microsomal CLint in “in vitro [1]” (liver microsomes) is 112 µL/min/mg. In addition, the hepatocyte CLint in the data set “in vitro [2]” is 26.9 µL/min/1e6 cells. The molecule further showed a fraction unbound at 5 h in “in vitro [3]” (PPB) of 0.285. Besides, in “physchem [4]”, the logD was found to be 2.2.

Regarding `C=CC(=O)Nc1cccc(CN2C(=O)N(c3c(Cl)c(OC)cc(OC)c3Cl)Cc3cnc(NCCCCN(CC)CC)nc32)c1`, the microsomal CLint in the data set “in vitro [1]” (liver microsomes) was 87.1 µL/min/mg. Besides, in “in vitro [2]”, the hepatocyte CLint is 39.8 µL/min/1e6 cells. For the same molecule, the fraction unbound at 5 h in “in vitro [3]” (PPB) was 0.02. For the same molecule, the logD in “physchem [4]” came out at 2.04.

In turn, `O=C(CSc1nc2c(c(=O)n1-c1ccccc1)SCC2)Nc1ccc(-c2ccccc2)cn1` had a microsomal CLint in “in vitro [1]” (microsomes) of more than 150 µL/min/mg. The molecule further gave a hepatocyte CLint in the data set “in vitro [2]” of more than 150 µL/min/1e6 cells. The molecule also showed a fraction unbound at 5 h in “in vitro [3]” (PPB) of 0.0017.

Regarding `O=C(CSc1nc2c(c(=O)n1-c1ccccc1)SCC2)Nc1ncc(-c2ccccc2)s1`, in the data set “in vitro [1]” (liver microsomes), the microsomal CLint was more than 150 µL/min/mg. Besides, the hepatocyte CLint in “in vitro [2]” was found to be 129 µL/min/1e6 cells. In the data set “in vitro [3]” (PPB), the fraction unbound at 5 h is 0.0023.

In the data set “in vitro [1]” (microsomes), `CCc1[nH]c2nc(Sc3cnc4ccc[n+]([O-])c4c3)nc(N3C[C@@H]4[C@@H](N)[C@@H]4C3)c2c1Cl` returned a microsomal CLint of 33.9 µL/min/mg. Also, the hepatocyte CLint in the data set “in vitro [2]” worked out at 58.9 µL/min/1e6 cells. Also, the fraction unbound at 5 h in the data set “in vitro [3]” (PPB) was 0.0661. Also, the logD in the data set “physchem [4]” was determined as 2.3.

For `CNc1nc(C)c(-c2nc(Nc3cccc(N4CCNCC4)c3)ncc2C#N)s1`, the microsomal CLint in “in vitro [1]” (microsomes) stood at 17.8 µL/min/mg. Moreover, in “in vitro [2]”, the hepatocyte CLint is 12.3 µL/min/1e6 cells. This molecule also had a fraction unbound at 5 h in “in vitro [3]” (PPB) of 0.139. In “physchem [4]”, this molecule yielded a logD of 1.9.

In turn, `CNc1nc(C)c(-c2nc(Nc3cccc(N4CCCCC4)c3)ncc2C#N)s1` displayed a microsomal CLint in “in vitro [1]” (liver microsomes) of 95.5 µL/min/mg. The hepatocyte CLint in the data set “in vitro [2]” was more than 150 µL/min/1e6 cells. The molecule further had a fraction unbound at 5 h in “in vitro [3]” (PPB) of 0.0019.

On to `CC(C)C(=O)Nc1nc(-c2ccccn2)cc2ccccc12`, for which the microsomal CLint in the data set “in vitro [1]” (liver microsomes) worked out at 105 µL/min/mg. In the data set “in vitro [2]”, this molecule had a hepatocyte CLint of 61.7 µL/min/1e6 cells. The fraction unbound at 5 h in “in vitro [3]” (PPB) was 0.0245. Besides, in the data set “physchem [4]”, the logD amounted to 2.7.

In “in vitro [1]” (liver microsomes), `C[C@@H](C(N)=O)c1ccc(OS(=O)(=O)C(F)(F)F)cc1` showed a microsomal CLint of less than 3 µL/min/mg. The same molecule showed a hepatocyte CLint in “in vitro [2]” of 3 µL/min/1e6 cells. The molecule also had a fraction unbound at 5 h in “in vitro [3]” (PPB) of 0.134.

Take `CCOc1nc2ccc(OCCC3CCN(c4ccc(C)nn4)CC3)cc2o1`: the microsomal CLint in the data set “in vitro [1]” (liver microsomes) worked out at 6 µL/min/mg. The same molecule yielded a hepatocyte CLint in “in vitro [2]” of 4 µL/min/1e6 cells. Besides, the fraction unbound at 5 h in the data set “in vitro [3]” (PPB) is 0.0028.

`CN[C@@H](C)C(=O)N[C@H](C(=O)N1CC[C@H]2CC[C@H](NC(=O)c3cccc4ccccc34)[C@H]21)C(C)(C)C`: the microsomal CLint in the data set “in vitro [1]” (liver microsomes) came out at 85.1 µL/min/mg. In addition, the intrinsic clearance (hepatocyte CLint) in “in vitro [2]” amounted to 12 µL/min/1e6 cells. In “in vitro [3]” (PPB), this molecule showed a fraction unbound at 5 h of 0.016. In the data set “physchem [4]”, the logD is 1.94.

`CC1(C)S[C@@H]2[C@H](NC(=O)C(C(=O)O)c3ccccc3)C(=O)N2[C@H]1C(=O)O` (some centres not stated) [CARBENICILLIN]: in the data set “in vitro [1]” (liver microsomes), the microsomal CLint was determined as 6.92 µL/min/mg. The molecule also displayed a hepatocyte CLint in the data set “in vitro [2]” of 3.39 µL/min/1e6 cells. Further, the fraction unbound at 5 h in the data set “in vitro [3]” (PPB) is 0.546.

With `COc1cc(C(=O)OCCCCNC(=N)N)cc(OC)c1O` [LEONURINE], the microsomal CLint in “in vitro [1]” (liver microsomes) was less than 3 µL/min/mg. In “in vitro [2]”, this molecule yielded a hepatocyte CLint of 138 µL/min/1e6 cells. In addition, the fraction unbound at 5 h in the data set “in vitro [3]” (PPB) was 0.619.

`CS(=O)(=O)c1ccc([C@@H](CC2CCCC2)C(=O)Nc2nccs2)cc1` [Ro-281675]: in “in vitro [1]” (microsomes), the microsomal CLint was determined as 29.5 µL/min/mg. The hepatocyte CLint in “in vitro [2]” was found to be 20.9 µL/min/1e6 cells. In “physchem [5]”, this molecule showed a solubility (thermodynamic) of 5.5 µM (≈ 2.08 µg/mL). In the data set “physchem [4]”, this molecule had a logD of 3.86.
